Laboratory results from patent publication US20240350471A1, “PHARMACEUTICAL COMPOSITION FOR PREVENTING OR TREATING ATTENTION DEFICIT/HYPERACTIVITY DISORDER” (DANKOOK UNIVERSITY CHEONAN CAMPUS INDUSTRY ACADEMIC …, priority 2021, published 2024).

Test system: Git1 hetero type (+/−) mice
Test: Open field test in Git1 hetero type (+/−) ADHD model mice treated with SNAP5114
Type: in vivo
Conditions: SNAP5114 I.P. 50 ug/kg for 7 days prior to the experiment, movement measured for 10 minutes
Description: Git1 gene-deficient hetero (+/−) mice were prepared as an animal model with attention deficit/hyperactivity disorder (ADHD). Wild-type mice and GIT1 gene-deficient knock-out type (KO type) mice were crossed to obtain GIT1 gene-deficient hetero type. After making mating cages for among the obtained hetero type mice, genotyping was performed to isolate the hetero type mice. SNAP5114 was administered intraperitoneally (I.P.) at a concentration of 50 ug/kg for 7 days prior to the experiment. SNAP5114 was dissolved in 10% DMSO and then used by dissolving in 90% saline just before the experiment. Open field tests were performed to evaluate behavioral morphology and, in order to determine the characteristics of tonic GABA in the striatum, a representative brain region that controls hyperactivity, immunohistochemistry and electrophysiological measurements (patch clamp recording) were performed. Considering that changes in the amount of GABA associated with astrocytes in ADHD model mice are related to the transport protein that transports GABA into the astrocytes, behavioral experiments were conducted by treating the SNAP5114, an inhibitor of GABA transporter-3 (GAT-3). […] The mice were placed in the center of an open field test cage (30×30×30 cm), and its movement was measured for 10 minutes. The measured videos were analyzed for locomotor activity through ANYmaze.

For `COc1ccc(C(OCCN2CCC[C@H](C(=O)O)C2)(c2ccc(OC)cc2)c2ccc(OC)cc2)cc1` [SNAP5114, (S)-1-(2-(tris(4-methoxyphenyl)methoxy)ethyl)piperidine-3-carboxylic acid], the “hyperactivity (distance of movement, locomotor activity) in open field test” value was “hyperactivity was found to be ameliorated to the level of WT”.
